Data on six molecules can be found in paper PMC10878751, “N-Substituted Phenylhydrazones Kill the Ring Stage of Plasmodium falciparum” (BioMed Research International, 2024).

Where two headings read alike, the source gives them in different places.

Data set [1] concerns 3D7 chloroquine-sensitive strain of Plasmodium falciparum. Put plainly: SYBR green antimalarial assay, 3D7 strain. The procedure: (§1) The SYBR green and cytotoxicity assay procedure to determine the potency of the phenylhydrazones was according to [16].
(§2) One-milligram (1 mg) powder of each compounds was weighed and transferred into dimethylsulphoxide (DMSO) (1 ml of 0.5% v/v) to yield a stock concentration of 1000 μg/ml. The stock solution was vortexed well to dissolve the compounds and later filtered through 0.2 μm pore filter unit and then stored in a -20°C freezer until use. The stock products were diluted 10-fold to obtain a working solution of 100 μg/ml. This working solution was further serially diluted […] to obtain the concentrations 100 μg/ml, 50 μg/ml, 25 μg/ml, 12.5 μg/ml, 6.25 μg/ml, 3.13 μg/ml, 1.56 μg/ml, 0.78 μg/ml, and 0.39 μg/ml.
(§3) Continuous P. falciparum asexual cultures were maintained in vitro in an atmosphere of 93% N2, 4% CO2, and 3% O2 at 37°C in complete medium (CM) (10.44 g/liter Roswell Park Memorial Institute Medium (RPMI) 1640, 5.94 g/liter N-2-hydroxyethylpiperazine-N-2-ethane sulfonic acid (HEPES), 5 g/liter AlbuMAX II, 50 mg/liter hypoxanthine, and 2.1 g/liter sodium bicarbonate). Parasites were cultured in O+ RBCs and maintained in the incubator with daily media change until a parasitemia of more than 5% ring stages was obtained. The culture was then treated with 5% sorbitol to obtain synchronized ring stage, and parasite growth was monitored for some few days by estimating percentage (%) parasitemia using Giemsa-stained slides and light microscope with 100x magnification until parasitemia of more than 5% was recorded. Parasite suspension of 2% hematocrit with 1% parasitemia was prepared using uninfected blood to make a total of 14 ml in a complete culture medium for the plating. Compound plating and SYBR green assay were according to [16].
(§4) One hundred (100) microliters of each nine dilutions (100 μg/ml, 50 μg/ml, 25 μg/ml, 12.5 μg/ml, 6.25 μg/ml, 3.13 μg/ml, 1.56 μg/ml, 0.78 μg/ml, and 0.39 μg/ml) was plated in duplicate in a 96-well coastal plate. 15 ng/ml of artesunate was serially diluted and plated alongside with the compounds as a standard antimalarial control drug. One hundred of parasite mix with 2% hematocrit and 1% parasitemia were added to each treated well starting from the 2nd well to the 10th well. One hundred microliters of parasite mix without any drug was added to the 11th well as a negative control, and the procedure was repeated for the rest of other extract/compounds. The plates were arranged in a modular chamber and gassed for 5 min with gas mixture of 5% oxygen, 5% carbon dioxide, and 90% nitrogen and then kept at 37°C for 72 h.
(§5) The plates were harvested after 72 h, and the assays were paused by adding 100 μl lysing buffer containing SYBR green to each well and was thoroughly and gently mixed to avoid production of bubbles. The plates were then incubated in the dark for 30-60 minutes before reading the assay using FLUOstar OPTIMA Fluorometer plate reader with control software version 2.20 at 470 nm and 520 nm wavelengths.
(§6) Each compound was tested in triplicate concentration that inhibits asexual Plasmodium falciparum parasite by 50% (IC50) estimated from dose-response curves by nonlinear regression analysis using GraphPad Prism version 7.0 software (GraphPad software, San Diego, CA, USA). Cytotoxicity analysis was carried out using Microsoft Excel Version 2010.

Another data set is described as follows: MTT cytotoxicity assay. The procedure: as §1
(§7) Following that, 100 μl of uninfected red blood cells was put to each well. Compound, culture medium, and uninfected red blood cells were subtracted from the optical densities by running control experiments for each parameter independently alongside the main experiment. The plates were then incubated for 72 hours at 37°C in a humidified incubator with 5% O2 and CO2 before 20 μl of 2.5 mg/ml MTT (in phosphate-buffered saline) solution was added to each well, and the plate was incubated for another 2 hours. After incubation, aliquots of culture medium (150 μl) were taken and discarded from each well, and 200 μl of Triton X-100 in acidified isopropanol was added to each well to dissolve any formazan produced. The plates were then maintained at room temperature in the dark for 24 hours before the optical densities of the wells were measured using a plate reader at 570 nm. […] The CC50 values were compared to the standard values.
(Tetrazolium assays rely on reduction of a dye to a coloured formazan, in cell work by metabolically active cells.)

Data set [2] deals with DD2 chloroquine-resistance strain. Put plainly: SYBR green antimalarial assay, DD2 strain. The procedure:
as §1, §2, §3, §4, §5, §6

Data set [3] relates to uninfected red blood cells. The data set can be described thus: MTT cytotoxicity assay. As to conditions: uninfected red blood cells, 72 h, MTT. The procedure: as §1, §7
Where [4] appears, read: Plasmodium falciparum, 3D7, 72 h, read-out: 3D7 IC50.
[5] abbreviates: Plasmodium falciparum, 3D7, read-out: pIC50 3D7 (converted).
Setting [6] is: Plasmodium falciparum, DD2, 72 h, read-out: DD2 IC50.
Where [7] appears, read: Plasmodium falciparum, DD2, read-out: pIC50 Dd2 (converted).

On to `O=[N+]([O-])c1ccc(NN=Cc2ccc(O)cc2O)c([N+](=O)[O-])c1` [PHN2, 4-(2-(2,4-Dinitrophenylhydrazono) Methyl) Benzene-1,3-diol], for which the IC50 in data set [1] (setting [4]) was 14.12 ± 0.04 µM; in data set [1] (setting [5]), 269 µM; in data set [2] (setting [6]), 16.2 ± 0.17 µM; in data set [2] (setting [7]), 40.7 µM. Further, the “SI = CC50/IC50 for 3D7” value in data set [1] (selectivity index) is recorded as 8. Also, in the data set “MTT cytotoxicity assay”, the midpoint of cytotoxicity, the CC50 at 72 h, lay at 119 µM. Further, the “SI = CC50/IC50 for DD2” value in data set [2] (selectivity index) worked out at 7.

As to `COc1cc(C=NNc2ccc([N+](=O)[O-])cc2[N+](=O)[O-])ccc1O` [PHN3], the IC50 is 6.6 ± 0.03 µM in data set [1] (setting [4]), 18.2 µM in data set [1] (setting [5]), 2.415 ± 0.01 µM in data set [2] (setting [6]) and 6.61 µM in data set [2] (setting [7]). The “SI = CC50/IC50 for 3D7” value in data set [1] (selectivity index) came to 20. In “MTT cytotoxicity assay”, this molecule registered a half-maximal cytotoxic concentration (CC50) at 72 h of 132 µM. In addition, in data set [2] (selectivity index), the “SI = CC50/IC50 for DD2” value is 55.

With `O=[N+]([O-])c1ccc(NN=Cc2cccc(O)c2)c([N+](=O)[O-])c1` [PHN6, 3-(2-2(4-Dinitrophenyl) Hydrazono) Methylphenol], the IC50 in data set [1] (setting [4]) is 1.29 ± 0.05 µM; in data set [1] (setting [5]), 4.27 µM; in data set [2] (setting [6]) it was 5.12 ± 0.07 µM; in data set [2] (setting [7]) it was 17 µM. Further, the “SI = CC50/IC50 for 3D7” value in data set [1] (selectivity index) is 79. This molecule also had a half-maximal cytotoxic concentration (CC50) at 72 h in the data set “MTT cytotoxicity assay” of 101 µM. Further, the “SI = CC50/IC50 for DD2” value in data set [2] (selectivity index) is reported as 19.

Consider `O=[N+]([O-])c1ccc(NN=C(c2ccccc2)c2ccccc2)c([N+](=O)[O-])c1` [PHN1, (2,4-Dinitrophenyl)-2-(diphenylmethylene) Hydrazine], for which the IC50 in data set [1] (setting [4]) was 31 ± 0.37 µM; in data set [2] (setting [6]), 34.89 ± 0.17 µM; in data set [2] (setting [7]), 89.1 µM. In addition, in data set [1] (selectivity index), the “SI = CC50/IC50 for 3D7” value amounted to 3. Moreover, the half-maximal cytotoxic concentration (CC50) at 72 h in the data set “MTT cytotoxicity assay” came to 106 µM. For the same molecule, the “SI = CC50/IC50 for DD2” value in data set [2] (selectivity index) stood at 3.

As to “1-Benzylidene-2-(2,4-dinitrophenyl)hydrazine [PHN5]”, in data set [1] (calculated from in vitro IC50s, 3D7 CS strain), the “pIC50 3D7” value was 4.25. For the same molecule, the IC50 in data set [1] (read-out: 3D7 IC50, 3D7 chloroquine-sensitive strain, ring stage, 72 h, SYBR green) is 19.02 ± 0.02 µM; in data set [2] (read-out: DD2 IC50, DD2 chloroquine-resistant strain, ring stage, 72 h, SYBR green), 6.591 ± 0.06 µM. Moreover, in data set [3], half-maximal cytotoxicity (CC50) was put at 112 µM. The “pIC50 Dd2” value in data set [2] (calculated from in vitro IC50s, DD2 CR strain) is 4.71.

Take `C[C@H]1[C@H](OC(=O)CCC(=O)O)O[C@@H]2O[C@@]3(C)CC[C@H]4[C@H](C)CC[C@@H]1[C@@]24OO3` [Artesunate, reference compound]: in data set [1], the “SI = CC50/IC50 for 3D7” value was over 1000. Further, the IC50 in data set [1] (setting [4]) was 0.004688 ± 1.7e-05 µM; in data set [2] (setting [6]), 0.005063 ± 2.3e-05 µM. In “MTT cytotoxicity assay” (uninfected red blood cells), this molecule came in with a 50% cytotoxic concentration (CC50) at 72 h of 84.7 µM. In addition, the “SI = CC50/IC50 for DD2” value in data set [2] is on record as over 1000.

In general, CC50 refers to the concentration that lowers cell viability or growth by half. Low readings indicate greater toxicity to the cells, high ones lower toxicity to the cells.
